PubChem BioAssay (NCI)
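The concentration for 50% growth inhibition is given as GI50. TGI marks complete inhibition of growth.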

Assays:
Test in all cases: NCI tumour cell line growth inhibition, 384-well format
786-0 renal = test system: 786-0 renal
A498 renal = test system: A498 renal
A549 NSCLC = test system: A549 NSCLC
ACHN renal = test system: ACHN renal
BT-549 breast = test system: BT-549 breast
CAKI-1 renal = test system: CAKI-1 renal
CCRF-CEM leukemia = test system: CCRF-CEM leukemia
COLO 205 colon = test system: COLO 205 colon
DU-145 prostate = test system: DU-145 prostate
EKVX NSCLC = test system: EKVX NSCLC
HCC-2998 colon = test system: HCC-2998 colon
HCT-116 colon = test system: HCT-116 colon
HCT-15 colon = test system: HCT-15 colon
HL-60(TB) leukemia = test system: HL-60(TB) leukemia
HOP-62 NSCLC = test system: HOP-62 NSCLC
HOP-92 NSCLC = test system: HOP-92 NSCLC
HS 578T breast = test system: HS 578T breast
HT29 colon = test system: HT29 colon
IGROV1 ovarian = test system: IGROV1 ovarian
KM12 colon = test system: KM12 colon
LOX IMVI melanoma = test system: LOX IMVI melanoma
M14 melanoma = test system: M14 melanoma
MALME-3M melanoma = test system: MALME-3M melanoma
MCF7 breast = test system: MCF7 breast
MDA-MB-231 breast = test system: MDA-MB-231 breast
MDA-MB-435 melanoma = test system: MDA-MB-435 melanoma
MDA-MB-468 breast = test system: MDA-MB-468 breast
MOLT-4 leukemia = test system: MOLT-4 leukemia
NCI-H226 lung = test system: NCI-H226 lung
NCI-H23 lung = test system: NCI-H23 lung
NCI-H322M lung = test system: NCI-H322M lung
NCI-H460 NSCLC = test system: NCI-H460 NSCLC
NCI-H522 lung = test system: NCI-H522 lung
NCI/ADR-RES ovarian = test system: NCI/ADR-RES ovarian
OVCAR-3 ovarian = test system: OVCAR-3 ovarian
OVCAR-4 ovarian = test system: OVCAR-4 ovarian
OVCAR-5 ovarian = test system: OVCAR-5 ovarian
OVCAR-8 ovarian = test system: OVCAR-8 ovarian
PC-3 prostate = test system: PC-3 prostate
RPMI-8226 leukemia = test system: RPMI-8226 leukemia
RXF 393 renal = test system: RXF 393 renal
SF-268 CNS = test system: SF-268 CNS
SF-295 CNS = test system: SF-295 CNS
SF-539 CNS = test system: SF-539 CNS
SK-MEL-28 melanoma = test system: SK-MEL-28 melanoma
SK-MEL-5 melanoma = test system: SK-MEL-5 melanoma
SK-OV-3 ovarian = test system: SK-OV-3 ovarian
SN12C renal = test system: SN12C renal
SNB-19 CNS = test system: SNB-19 CNS
SNB-75 CNS = test system: SNB-75 CNS
SR leukemia = test system: SR leukemia
SW-620 colon = test system: SW-620 colon
T-47D breast = test system: T-47D breast
TK-10 renal = test system: TK-10 renal
U251 glioblastoma = test system: U251 glioblastoma
UACC-257 melanoma = test system: UACC-257 melanoma
UACC-62 melanoma = test system: UACC-62 melanoma
UO-31 renal = test system: UO-31 renal

## Cc1cnc(Nc2ccc(OCCN3CCCC3)cc2)nc1Nc1cccc(S(=O)(=O)NC(C)(C)C)c1
786-0 renal
  GI50: 1270 nM
  TGI: 2550 nM
A498 renal
  GI50: 909 nM
  TGI: 3090 nM
A549 NSCLC
  GI50: 1370 nM
  TGI: 2730 nM
ACHN renal
  GI50: 1300 nM
  TGI: 2850 nM
BT-549 breast
  GI50: 1620 nM
  TGI: 3010 nM
CAKI-1 renal
  GI50: 593 nM
  TGI: 1710 nM
CCRF-CEM leukemia
  GI50: 1400 nM
  TGI: 2750 nM
COLO 205 colon
  GI50: 1820 nM
  TGI: 3280 nM
DU-145 prostate
  GI50: 1080 nM
  TGI: 2870 nM
EKVX NSCLC
  GI50: 1770 nM
  TGI: 3980 nM
HCC-2998 colon
  GI50: 1390 nM
  TGI: 2860 nM
HCT-116 colon
  GI50: 635 nM
  TGI: 2070 nM
HCT-15 colon
  GI50: 1660 nM
  TGI: 4310 nM
HL-60(TB) leukemia
  GI50: 464 nM
  TGI: 1340 nM
HOP-62 NSCLC
  GI50: 2000 nM
  TGI: 4870 nM
HOP-92 NSCLC
  GI50: 1020 nM
  TGI: 2220 nM
HS 578T breast
  GI50: 837 nM
  TGI: 2270 nM
HT29 colon
  GI50: 1420 nM
  TGI: 2790 nM
IGROV1 ovarian
  GI50: 1080 nM
  TGI: 2650 nM
KM12 colon
  GI50: 418 nM
  TGI: 5550 nM
LOX IMVI melanoma
  GI50: 815 nM
  TGI: 2050 nM
M14 melanoma
  GI50: 1020 nM
  TGI: 2500 nM
MALME-3M melanoma
  GI50: 1450 nM
  TGI: 3040 nM
MCF7 breast
  GI50: 1160 nM
  TGI: 2680 nM
MDA-MB-231 breast
  GI50: 1060 nM
  TGI: 2350 nM
MDA-MB-435 melanoma
  GI50: 2610 nM
  TGI: 11600 nM
MDA-MB-468 breast
  GI50: 1200 nM
  TGI: 2640 nM
MOLT-4 leukemia
  GI50: 428 nM
  TGI: 1480 nM
NCI-H226 lung
  GI50: 740 nM
  TGI: 1940 nM
NCI-H23 lung
  GI50: 1450 nM
  TGI: 3350 nM
NCI-H322M lung
  GI50: 1240 nM
  TGI: 7230 nM
NCI-H460 NSCLC
  GI50: 1880 nM
  TGI: 11700 nM
NCI-H522 lung
  GI50: 523 nM
  TGI: 1680 nM
NCI/ADR-RES ovarian
  GI50: 6430 nM
  TGI: 18300 nM
OVCAR-3 ovarian
  GI50: 1270 nM
  TGI: 4510 nM
OVCAR-4 ovarian
  GI50: 1600 nM
  TGI: 3650 nM
OVCAR-5 ovarian
  GI50: 1670 nM
  TGI: 5630 nM
OVCAR-8 ovarian
  GI50: 1540 nM
  TGI: 2920 nM
PC-3 prostate
  GI50: 1440 nM
  TGI: 8680 nM
RPMI-8226 leukemia
  GI50: 624 nM
  TGI: 1780 nM
RXF 393 renal
  GI50: 707 nM
  TGI: 1660 nM
SF-268 CNS
  GI50: 1900 nM
  TGI: 4220 nM
SF-295 CNS
  GI50: 2740 nM
  TGI: 8670 nM
SF-539 CNS
  GI50: 1510 nM
  TGI: 2860 nM
SK-MEL-28 melanoma
  GI50: 3610 nM
  TGI: 11600 nM
SK-MEL-5 melanoma
  GI50: 1320 nM
  TGI: 2630 nM
SK-OV-3 ovarian
  GI50: 604 nM
  TGI: 1840 nM
SN12C renal
  GI50: 1540 nM
  TGI: 4490 nM
SNB-19 CNS
  GI50: 2970 nM
  TGI: 8890 nM
SNB-75 CNS
  GI50: 869 nM
  TGI: 2160 nM
SR leukemia
  GI50: 372 nM
  TGI: 1360 nM
SW-620 colon
  GI50: 1570 nM
  TGI: 3640 nM
T-47D breast
  GI50: 1780 nM
  TGI: 5210 nM
TK-10 renal
  GI50: 1550 nM
  TGI: 3190 nM
U251 glioblastoma
  GI50: 2570 nM
  TGI: 12400 nM
UACC-257 melanoma
  GI50: 1730 nM
  TGI: 3120 nM
UACC-62 melanoma
  GI50: 1000 nM
  TGI: 2670 nM
UO-31 renal
  GI50: 1770 nM
  TGI: 3170 nM
